Results: patent US7202196B2, “Selective herbicide comprising a tetrazolinone derivative” (Bayer Cropscience AG, priority 2001, dated 2007)

Legend:
Assay type in all cases: in vivo
Aeschynomene rudis = test: Example A: test in sown rice (Brazil), herbicidal effect; conditions: fentrazamide 250 EC 400 g a.i./ha; spray at 1-2-leaf stage of the rice, 10 days after sowing; scored 3 weeks after application; outdoor test Brazil 1999
Text: (§1) To prepare a spray preparation, the active compound preparations are mixed with water. The concentration is adjusted so that the application rate corresponds to 200 l of water/ha.
(§2) Rice seeds are sown in test plots (2 m×5 m) in rice paddies. 10 days after sowing (when the rice has reached the 1-2-leaf stage), the spray preparation is applied to the test areas (using a hand-operated sprayer). 1 month after the treatment, the soil is flooded to a water depth of 5 cm; the standing water levels are kept constant.
(§3) 3 weeks after the active compound application, the degree of damage to the rice plants and the herbicidal effect on the emerged weeds of the species Aeschynomene rudis is scored visually in percent in comparison to an untreated control.
(§4) The figures denote: • 0%=no action/damage (like untreated control) • 100%=total destruction

Paddy rice (Oryza sp.) [1] = test: Example A: test in sown rice (Brazil), damage to rice; conditions: fentrazamide 250 EC 400 g a.i./ha; spray at 1-2-leaf stage of the rice, 10 days after sowing; scored 3 weeks after application; outdoor test Brazil 1999
Text: as §1, §2, §3, §4

Brachiaria plantaginea [2] = test: Example B: test in sown rice (Brazil), herbicidal effect; conditions: fentrazamide 250 EC 300 g a.i./ha; spray at BBCH 23 stage of the rice, 29 days after sowing; scored 2 weeks after application; outdoor test Brazil 1999
Text: as §1
(§5) Rice seeds are sown in test plots (2 m×5 m) in rice paddies. 29 days after sowing (during the BBCH 23 development stage of the rice; begin of stocking), the spray preparation is applied to the test areas (using a hand-operated sprayer). A few days after the treatment, the soil is flooded to a water depth of 5 cm; the standing water levels are kept constant.
(§6) 2 weeks after the active compound application, the degree of damage to the rice plants and the herbicidal effect on the emerged weeds Echinochloa crus-galli and Brachiaria plantaginea is scored visually in percent in comparison to an untreated control.
as §4

Echinochloa crus-galli [3] = test: as above; conditions: fentrazamide 250 EC 300 g a.i./ha; spray at BBCH 23 stage of the rice, 29 days after sowing; scored 2 weeks after application; outdoor test Brazil 1999
Text: as §1, §5, §6, §4

Paddy rice (Oryza sp.) [4] = test: Example B: test in sown rice (Brazil), damage to rice; conditions: fentrazamide 250 EC 300 g a.i./ha; spray at BBCH 23 stage of the rice, 29 days after sowing; scored 2 weeks after application; outdoor test Brazil 1999
Text: as §1, §5, §6, §4

Brachiaria plantaginea [5] = test: Example C: test in sown rice (Brazil), herbicidal effect; conditions: fentrazamide 250 EC 300 g a.i./ha; spray at BBCH 23 stage of the rice, 29 days after sowing; scored 2 weeks after application; outdoor test Brazil 1999
Text: as §1, §5, §6, §4

Echinochloa crus-galli [6] = test: as above; conditions: fentrazamide 250 EC 300 g a.i./ha; spray at BBCH 23 stage of the rice, 29 days after sowing; scored 2 weeks after application; outdoor test Brazil 1999
Text: as §1, §5, §6, §4

Paddy rice (Oryza sp.) [7] = test: Example C: test in sown rice (Brazil), damage to rice; conditions: fentrazamide 250 EC 300 g a.i./ha; spray at BBCH 23 stage of the rice, 29 days after sowing; scored 2 weeks after application; outdoor test Brazil 1999
Text: as §1, §5, §6, §4

Brachiaria plantaginea [8] = test: Example D: test in sown rice (Brazil), herbicidal effect; conditions: fentrazamide 250 EC 300 g a.i./ha; spray at BBCH 23 stage of the rice, 29 days after sowing; scored 2 weeks after application; outdoor test Brazil 1999
Text: as §1, §5, §6, §4

Echinochloa crus-galli [9] = test: as above; conditions: fentrazamide 250 EC 300 g a.i./ha; spray at BBCH 23 stage of the rice, 29 days after sowing; scored 2 weeks after application; outdoor test Brazil 1999
Text: as §1, §5, §6, §4

Paddy rice (Oryza sp.) [10] = test: Example D: test in sown rice (Brazil), damage to rice; conditions: fentrazamide 250 EC 300 g a.i./ha; spray at BBCH 23 stage of the rice, 29 days after sowing; scored 2 weeks after application; outdoor test Brazil 1999
Text: as §1, §5, §6, §4

Brachiaria plantaginea [11] = test: Example E: test in sown rice (Brazil), herbicidal effect; conditions: fentrazamide 250 EC 300 g a.i./ha; spray at BBCH 23 stage of the rice, 29 days after sowing; scored 2 weeks after application; outdoor test Brazil 1999
Text: as §1, §5, §6, §4

Echinochloa crus-galli [12] = test: as above; conditions: fentrazamide 250 EC 300 g a.i./ha; spray at BBCH 23 stage of the rice, 29 days after sowing; scored 2 weeks after application; outdoor test Brazil 1999
Text: as §1, §5, §6, §4

Paddy rice (Oryza sp.) [13] = test: Example E: test in sown rice (Brazil), damage to rice; conditions: fentrazamide 250 EC 300 g a.i./ha; spray at BBCH 23 stage of the rice, 29 days after sowing; scored 2 weeks after application; outdoor test Brazil 1999
Text: as §1, §5, §6, §4

Acanthospermum hispidum = test: Example F: test in sown rice (Brazil), herbicidal effect; conditions: fentrazamide 250 EC 300 g a.i./ha; spray at BBCH 12 stage of the rice (2-leaf-stage), 18 days after sowing; scored 3 weeks after application; outdoor test Brazil 1999
Text: as §1
(§7) Rice seeds are sown in test plots (2 m×5 m) in rice paddies. 18 days after sowing (during the BBCH 12 development stage of the rice; corresponds to the 2-leaf-stage), the spray preparation is applied to the test areas (using a hand-operated sprayer).
(§8) 3 weeks after the active compound application, the degree of damage to the rice plants and the herbicidal effect on the emerged weeds Acanthospermum hispidum, Commelina benghalensis, Digitaria sanguinalis and Eleusine indica is scored visually in percent in comparison to an untreated control.
as §4

Commelina benghalensis = test: as above; conditions: fentrazamide 250 EC 300 g a.i./ha; spray at BBCH 12 stage of the rice (2-leaf-stage), 18 days after sowing; scored 3 weeks after application; outdoor test Brazil 1999
Text: as §1, §7, §8, §4

Digitaria sanguinalis = test: as above; conditions: fentrazamide 250 EC 300 g a.i./ha; spray at BBCH 12 stage of the rice (2-leaf-stage), 18 days after sowing; scored 3 weeks after application; outdoor test Brazil 1999
Text: as §1, §7, §8, §4

Eleusine indica = test: as above; conditions: fentrazamide 250 EC 300 g a.i./ha; spray at BBCH 12 stage of the rice (2-leaf-stage), 18 days after sowing; scored 3 weeks after application; outdoor test Brazil 1999
Text: as §1, §7, §8, §4

[14] = system: Mountain rice (Oryza sp.); test: Example F: test in sown rice (Brazil), damage to rice; conditions: fentrazamide 250 EC 300 g a.i./ha; spray at BBCH 12 stage of the rice (2-leaf-stage), 18 days after sowing; scored 3 weeks after application; outdoor test Brazil 1999
Text: as §1, §7, §8, §4

Echinochloa crus-galli [15] = test: Example G: test in sown rice (Philippines), herbicidal effect; conditions: fentrazamide 50 WP 135 g a.i./ha; spray 11 days after sowing (4-leaf-stage); scored 8 weeks after application; outdoor test Philippines 1999
Text: as §1
(§9) Rice seeds are sown in test plots (2.5 m×2.5 m) in rice paddies. 11 days after sowing (4-leaf-stage of the rice), the spray preparation is applied to the test areas (using a hand-operated sprayer). 1 day after the treatment, the soil is flooded to a water depth of 5 cm; the standing water levels are kept constant.
(§10) 8 weeks after the active compound application, the degree of damage to the rice plants and the herbicidal effect on the emerged weeds of the species Echinochloa crus-galli is scored visually in percent in comparison to an untreated control.
as §4

Paddy rice (Oryza sp.) [16] = test: Example G: test in sown rice (Philippines), damage to rice; conditions: fentrazamide 50 WP 135 g a.i./ha; spray 11 days after sowing (4-leaf-stage); scored 8 weeks after application; outdoor test Philippines 1999
Text: as §1, §9, §10, §4

Echinochloa crus-galli [17] = test: Example H: test in sown rice (Thailand), herbicidal effect; conditions: fentrazamide 50 WP 135 g a.i./ha; spray 7 days after sowing (2-leaf-stage); scored 8 weeks after application; outdoor test Thailand 1999
Text: as §1
(§11) Rice seeds are sown in test plots (2.5 m×2.5 m) in rice paddies. 7 days after sowing (2-leaf-stage of the rice), the spray preparation is applied to the test areas (using a hand-operated sprayer). 2 days after the treatment, the soil is flooded to a water depth of 5 cm; the standing water levels are kept constant.
(§12) 8 weeks after the active compound application, the degree of damage to the rice plants and the herbicidal effect on the emerged weeds Echinochloa crus-galli and Leptochloa chinensis is scored visually in percent in comparison to an untreated control.
as §4

Leptochloa chinensis = test: as above; conditions: fentrazamide 50 WP 135 g a.i./ha; spray 7 days after sowing (2-leaf-stage); scored 8 weeks after application; outdoor test Thailand 1999
Text: as §1, §11, §12, §4

Paddy rice (Oryza sp.) [18] = test: Example H: test in sown rice (Thailand), damage to rice; conditions: fentrazamide 50 WP 135 g a.i./ha; spray 7 days after sowing (2-leaf-stage); scored 8 weeks after application; outdoor test Thailand 1999
Text: as §1, §11, §12, §4

Echinochloa crus-galli [19] = test: Example I: test in sown rice (Thailand), herbicidal effect; conditions: fentrazamide 50 WP 135 g a.i./ha; spray 7 days after sowing (2-leaf-stage); scored 3 weeks after application; outdoor test Thailand 1999
Text: as §1, §11
(§13) 3 weeks after the active compound application, the degree of damage to the rice plants and the herbicidal effect on the emerged weeds Echinochloa crus-galli is scored visually in percent in comparison to an untreated control.
as §4

Paddy rice (Oryza sp.) [20] = test: Example I: test in sown rice (Thailand), damage to rice; conditions: fentrazamide 50 WP 135 g a.i./ha; spray 7 days after sowing (2-leaf-stage); scored 3 weeks after application; outdoor test Thailand 1999
Text: as §1, §11, §13, §4

For `CCN(C(=O)n1nnn(-c2ccccc2Cl)c1=O)C1CCCCC1` [(A), 4-(2-chlorophenyl)-N-cyclohexyl-N-ethyl-4,5-dihydro-5-oxo-1H-tetrazole-1-carboxamide], the “Damage or action in % Aeschynomene rudis found” value (Aeschynomene rudis) was 30%, the “Damage or action in % Paddy rice (Oryza sp.) found” value (shortened to “Damage or action in % Paddy rice”) (Paddy rice (Oryza sp.) [1]) was 0% and the “Damage or action in % Brachiaria plantaginea found” value (Brachiaria plantaginea [2]) was 10%. For the same compound, the “Damage or action in % Echinochloa crus-galli found” value (Echinochloa crus-galli [3]) was 35%, the “Damage or action in % Paddy rice” value (Paddy rice (Oryza sp.) [4]) was 0% and the “Damage or action in % Brachiaria plantaginea found” value (Brachiaria plantaginea [5]) was 10%. For the same compound, the “Damage or action in % Echinochloa crus-galli found” value (Echinochloa crus-galli [6]) was 35%, the “Damage or action in % Paddy rice” value (Paddy rice (Oryza sp.) [7]) was 0% and the “Damage or action in % Brachiaria plantaginea found” value (Brachiaria plantaginea [8]) was 10%. For the same compound, the “Damage or action in % Echinochloa crus-galli found” value (Echinochloa crus-galli [9]) was 35%, the “Damage or action in % Paddy rice” value (Paddy rice (Oryza sp.) [10]) was 0% and the “Damage or action in % Brachiaria plantaginea found” value (Brachiaria plantaginea [11]) was 10%. The “Damage or action in % Echinochloa crus-galli found” value (Echinochloa crus-galli [12]) was 35%, the “Damage or action in % Paddy rice” value (Paddy rice (Oryza sp.) [13]) was 0% and the “Damage or action in % Acantho-spermum hispidum found” value (Acanthospermum hispidum) was 50%. For the same compound, the “Damage or action in % Commelina Bengha-lensis found” value (Commelina benghalensis) was 50%, the “Damage or action in % Digitaria Sanguina-lis found” value (Digitaria sanguinalis) was 50% and the “Damage or action in % Eleusine indica found” value (Eleusine indica) was 50%. The “Damage or action in % Mountain rice (Oryza sp.) found” value [14] was 0%, the “Damage or action in % Echinochloa crus-galli found” value (Echinochloa crus-galli [15]) was 78% and the “Damage or action in % Paddy rice” value (Paddy rice (Oryza sp.) [16]) was 0%. The “Damage or action in % Echinochloa crus-galli found” value (Echinochloa crus-galli [17]) was 47%, the “Damage or action in % Leptochloa chinensis found” value (Leptochloa chinensis) was 38% and the “Damage or action in % Paddy rice” value (Paddy rice (Oryza sp.) [18]) was 3%. The “Damage or action in % Echinochloa crus-galli found” value (Echinochloa crus-galli [19]) was 58% and the “Damage or action in % Paddy rice” value (Paddy rice (Oryza sp.) [20]) was 2%.
